For one experiment, the system named is peritoneal macrophages. Put plainly: in vivo labeling of peritoneal macrophages by targeting polypeptide with pre-targeting binding handle. The arrangement: species or system Kunming mice. Conditions: 10 µM peptide premixed with Strep-PE, intraperitoneal injection, 4 h; F4/80-APC counterstain; flow cytometry. The protocol: • (1) In vivo labeling of peritoneal macrophages by targeting polypeptides connected with pre-targeting binding handles: In this example, the targeting polypeptides KS24 (amino acid sequence: […] (SEQ ID NO: 29)) and KS29 (amino acid sequence: […] (SEQ ID NO: 30)) were used. The pre-targeting binding handle was biotin. The biotinylation steps of the targeting polypeptides were as follows: the biotinylation of targeting polypeptides was carried out by adding biotinylated amino acids during peptide synthesis, so that the biotinylation sites can be controlled. Two biotinylated targeting polypeptides (bio-KS24 and bio-KS29) were respectively connected to phycoerythrin-labeled streptavidin (Strep-PE), where streptavidin served as a linker, and the phycoerythrin was connected through the specific binding of the linker to the pre-targeting binding handle (biotin-avidin system) to the targeting polypeptide for immune cell labeling and tracing. The mixtures were incubated together at room temperature for 1 h. In a 100 µL reaction system, the final concentration of the biotinylated targeting polypeptide was 10 µM, and 1 µL of Strep-PE was added. After the incubation, two groups of healthy female Kunming mice (3 mice in each group) were selected. […] After incubation, the cells were washed twice with 1× PBS and analyzed using flow cytometry. […]

Experiment [1] relates to peripheral blood of Kunming mice. Put plainly: labeling of peripheral blood with targeting polypeptide with pre-targeting binding handle, flow cytometry. The class given is cell-based. Conditions: 10 µM peptide; for staining of cell populations in peripheral blood: 4°C 30 min, Strep-PE, CD19 and CD5 antibodies; for identity of the labeled B lymphocyte population: CD19 and CD5 counterstain. From the text: (2) Labeling of peripheral blood with the targeting polypeptide connected with pre-targeting binding handle: Healthy Kunming mice were taken and killed by cervical dislocation, and their peripheral blood was collected using anticoagulant blood vessels.
KS24 and KS29 were biotinylated according to the method described in (1) to obtain targeting polypeptides bio-KS24 and bio-KS29 connected with pre-targeting binding handle. The targeting polypeptides bio-KS24 and bio-KS29 each connected with the pre-targeting binding handle were added to 50 µL of peripheral blood samples, respectively, to be diluted to 100 µL with 1×PBS so that the concentration of the targeting polypeptides bio-KS24 and bio-KS29 connected with the pre-targeting binding handle in the solution was 10 µM, and the mixture was incubated at 4°C for 30 min. After the incubation, red blood cells in the peripheral blood were lysed using a conventional red blood cell lysis reagent in the art according to the instructions, washed twice with 1×PBS, resuspended with 100 µL of 1×PBS, and 1 µL/tube of phycoerythrin-labeled Strep-PE, 0.5 µL/tube of anti-mouse CD19 Antibody, and 0.5 µL/tube of FITC anti-mouse CD5 Antibody were added, and incubated at room temperature for 1 h. After the incubation, the cells were washed twice with 1× PBS and analyzed by flow cytometry.

Experiment [2] concerns peritoneal free macrophages. Put plainly: pre-targeting delivery after intraperitoneal injection, free peritoneal cells, fluorescence microscopy. The experiment is classed as in vivo, Kunming mice. Conditions: peptide 10 µM intraperitoneal, Strep-PE intraperitoneal 3 h later, killed 1 h later; F4/80-APC counterstain. The protocol: (§1) The specific experimental steps are as follows: Biotinylated targeting polypeptides bio-KS24 and bio-KS29 (i.e., targeting polypeptides connected with the pre-targeting binding handles) were prepared according to the steps described in the above examples.
(§2) The targeting polypeptides (bio-KS24 and bio-KS29) connected with the pre-targeting binding handles were prepared, respectively, with a final concentration of 10 µM and a final volume of 100 µL. Then, the mixture was diluted with PBS to 4 times of the original volume (i.e., 100 µL of the mixed system was diluted to 400 µL), and then injected into Kunming mice intraperitoneally, with an injection volume of 400 µL per mouse. After the injection of the targeted polypeptide for 3 h, 5 µL Trep-PE was diluted into 100 µL of 1× PBS and intraperitoneally injected into mice. The mice were killed 1 h after the injection, and free peritoneal cells and mesentery were extracted and counterstained with F4/80-APC antibody. After incubation, the cells were washed twice with 1× PBS and observed under a fluorescence microscope.
(§3) Untreated healthy mice were used as controls.

Experiment [3] deals with macrophages on the mesentery. Put plainly: pre-targeting delivery after intraperitoneal injection, mesentery, fluorescence microscopy. The experiment is classed as in vivo, Kunming mice. Conditions: peptide 10 µM intraperitoneal, Strep-PE intraperitoneal 3 h later, killed 1 h later; F4/80-APC counterstain. The procedure: as §1, §2, §3
The target of experiment [4] is T1, Peptide segment KL19 (KEQPDPGAVAAAAILRAIL).
T1 construct: Synthetic peptide used as ELISA coating antigen; Derived from the C-terminal fragment of Triokinase/FMN cyclase, with an added N-terminal K
T1 peptide: KEQPDPGAVAAAAILRAIL
Kind of experiment: indirect ELISA, peptide as coating antigen. On the technique in general: ELISA stands for enzyme-linked immunosorbent assay.

Where no end group is shown, it is not given here.

“bio-KS24: biotinylated targeting polypeptide KS24, KEQPDPGAVAAAAILRAILEVLQS (SEQ ID NO: 29) (also: biotinylated, site not given here)”: in the experiment with peritoneal macrophages, the “recognition of macrophages in peritoneal cells” value is “can selectively recognize macrophages in peritoneal cells of mice”. In experiment [1], the “staining of cell populations in peripheral blood” value is “can stain a subset of B lymphocyte population and granulocyte population”; the “identity of the labeled B lymphocyte population” value is “CD5^+ B lymphocytes”. Besides, the “pre-labeling of free peritoneal macrophages” value in experiment [2] was “could pre-label macrophages”. The “pre-labeling of macrophages on the mesentery” value in experiment [3] is given as “could pre-label macrophages on the mesentery”.

In the case of “bio-KS29: biotinylated targeting polypeptide KS29, KSSARLEQPDPGAVAAAAILRAILEVLQS (SEQ ID NO: 30) (also: biotinylated, site not given here)”, the “recognition of macrophages in peritoneal cells” value with peritoneal macrophages is “can selectively recognize macrophages in peritoneal cells of mice”. Moreover, in experiment [1], the “staining of cell populations in peripheral blood” value was “can stain a subset of B lymphocyte population and granulocyte population”; the “identity of the labeled B lymphocyte population” value was “CD5^+ B lymphocytes”. The “pre-labeling of free peritoneal macrophages” value in experiment [2] is reported as “could pre-label macrophages”. In experiment [3], the “pre-labeling of macrophages on the mesentery” value is “could pre-label macrophages on the mesentery”.

B1: KA-001 monoclonal antibody (antibody, mouse IgG1, kappa, V domains shown)
VH: DVKIVESGGGLVKLGGSLKLSCAASGFTFSRNYMSWVRQTPEKRLELVAGINNNGGSTYYPDTVKGRFTISRDNAKNTLYLQMSSLRSEDTAIYYCAKRGFITTVGAMDYWGQGISVTVSS
VL: DIQMTQTTFSLSASLGDRVTISCRASQDISNYLNWYQQIPDGTVKLLIYYTSRLHSGVPSRFSGSGSGTDYSLTISNLEQEDIATYFCQQVHTLPYTFGGGTKLEMKR
For B1, in experiment [4], the binding result is listed as “no binding”.
